In one assay the target is T1, Endothelin-1 receptor (Homo sapiens, UniProt P25101).
T1 sequence (P25101 whole entry): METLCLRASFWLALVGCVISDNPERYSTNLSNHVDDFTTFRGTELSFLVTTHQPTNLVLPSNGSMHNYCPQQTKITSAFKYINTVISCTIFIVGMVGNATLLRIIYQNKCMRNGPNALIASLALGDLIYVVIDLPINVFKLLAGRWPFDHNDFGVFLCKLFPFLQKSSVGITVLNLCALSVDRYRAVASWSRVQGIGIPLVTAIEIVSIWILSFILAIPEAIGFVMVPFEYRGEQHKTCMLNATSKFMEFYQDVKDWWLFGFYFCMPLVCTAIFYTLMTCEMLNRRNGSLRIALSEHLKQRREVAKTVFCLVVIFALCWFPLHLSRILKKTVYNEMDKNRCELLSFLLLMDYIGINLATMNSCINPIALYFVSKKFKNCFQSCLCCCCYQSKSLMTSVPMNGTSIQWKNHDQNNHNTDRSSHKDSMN

The target of assay [1] is T2, Alpha-2B adrenergic receptor (Homo sapiens, UniProt P18089).
T2 sequence (P18089 whole entry): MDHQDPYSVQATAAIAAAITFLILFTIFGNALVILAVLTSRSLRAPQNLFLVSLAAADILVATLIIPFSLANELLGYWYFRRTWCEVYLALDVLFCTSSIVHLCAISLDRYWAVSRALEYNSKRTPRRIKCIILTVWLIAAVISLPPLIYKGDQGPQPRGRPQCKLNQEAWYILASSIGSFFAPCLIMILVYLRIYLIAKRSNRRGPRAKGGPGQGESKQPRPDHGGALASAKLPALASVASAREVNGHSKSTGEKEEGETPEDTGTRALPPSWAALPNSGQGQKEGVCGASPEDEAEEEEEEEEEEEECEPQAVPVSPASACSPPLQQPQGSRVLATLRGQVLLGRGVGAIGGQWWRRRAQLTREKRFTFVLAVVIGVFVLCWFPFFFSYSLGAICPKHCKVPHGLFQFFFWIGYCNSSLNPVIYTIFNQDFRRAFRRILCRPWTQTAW

The target of assay [2] is 5-hydroxytryptamine receptor 2A (Homo sapiens, UniProt P28223). It counts as functional, cell-based.
Chain of 5-hydroxytryptamine receptor 2A (P28223 whole entry): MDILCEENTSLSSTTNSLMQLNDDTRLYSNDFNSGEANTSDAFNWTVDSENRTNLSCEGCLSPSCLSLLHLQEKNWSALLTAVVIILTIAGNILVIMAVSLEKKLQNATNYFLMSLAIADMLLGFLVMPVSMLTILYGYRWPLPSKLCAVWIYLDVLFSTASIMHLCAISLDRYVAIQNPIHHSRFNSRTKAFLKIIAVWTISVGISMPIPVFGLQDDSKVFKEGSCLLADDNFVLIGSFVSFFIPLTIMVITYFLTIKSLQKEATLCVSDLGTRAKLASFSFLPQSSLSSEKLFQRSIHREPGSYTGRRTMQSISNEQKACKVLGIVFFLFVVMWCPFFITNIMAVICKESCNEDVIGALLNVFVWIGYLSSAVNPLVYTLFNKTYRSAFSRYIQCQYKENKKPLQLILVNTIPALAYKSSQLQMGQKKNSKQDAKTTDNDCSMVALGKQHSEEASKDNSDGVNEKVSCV
The target of a further assay is Cannabinoid receptor 1 (Homo sapiens, UniProt P21554). It counts as functional, cell-based.
Chain of Cannabinoid receptor 1 (P21554 whole entry): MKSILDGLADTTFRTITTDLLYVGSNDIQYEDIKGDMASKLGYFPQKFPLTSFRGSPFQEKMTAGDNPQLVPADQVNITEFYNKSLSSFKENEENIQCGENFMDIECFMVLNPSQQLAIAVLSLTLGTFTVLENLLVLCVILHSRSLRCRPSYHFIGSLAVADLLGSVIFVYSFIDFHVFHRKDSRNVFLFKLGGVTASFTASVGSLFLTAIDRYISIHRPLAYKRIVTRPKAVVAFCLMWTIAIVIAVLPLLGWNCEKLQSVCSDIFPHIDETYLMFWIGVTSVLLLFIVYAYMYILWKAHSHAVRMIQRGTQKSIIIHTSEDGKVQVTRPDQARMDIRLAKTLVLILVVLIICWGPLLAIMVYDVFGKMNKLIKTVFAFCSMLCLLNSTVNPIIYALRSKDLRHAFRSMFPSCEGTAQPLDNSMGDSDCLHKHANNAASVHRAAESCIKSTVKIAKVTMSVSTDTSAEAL
The target in assay [3] is T3, Alpha-1A adrenergic receptor (Homo sapiens, UniProt P35348).
T3 sequence (P35348 whole entry): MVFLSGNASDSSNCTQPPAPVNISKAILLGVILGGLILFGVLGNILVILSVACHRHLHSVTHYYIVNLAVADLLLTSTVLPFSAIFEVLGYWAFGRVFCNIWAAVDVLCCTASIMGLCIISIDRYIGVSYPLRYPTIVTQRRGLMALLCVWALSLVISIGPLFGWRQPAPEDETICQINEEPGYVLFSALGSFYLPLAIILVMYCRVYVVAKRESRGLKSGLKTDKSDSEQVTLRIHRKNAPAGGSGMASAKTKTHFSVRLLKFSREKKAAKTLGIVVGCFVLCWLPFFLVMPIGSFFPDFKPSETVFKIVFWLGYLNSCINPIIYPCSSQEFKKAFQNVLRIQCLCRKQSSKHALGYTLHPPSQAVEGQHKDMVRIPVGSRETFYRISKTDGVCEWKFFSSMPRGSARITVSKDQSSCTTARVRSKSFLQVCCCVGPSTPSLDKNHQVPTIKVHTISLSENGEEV
It counts as functional, cell-based.

In assay [4] the target is Beta-2 adrenergic receptor (Homo sapiens, UniProt P07550). It counts as functional, cell-based.
Chain of Beta-2 adrenergic receptor (P07550 whole entry): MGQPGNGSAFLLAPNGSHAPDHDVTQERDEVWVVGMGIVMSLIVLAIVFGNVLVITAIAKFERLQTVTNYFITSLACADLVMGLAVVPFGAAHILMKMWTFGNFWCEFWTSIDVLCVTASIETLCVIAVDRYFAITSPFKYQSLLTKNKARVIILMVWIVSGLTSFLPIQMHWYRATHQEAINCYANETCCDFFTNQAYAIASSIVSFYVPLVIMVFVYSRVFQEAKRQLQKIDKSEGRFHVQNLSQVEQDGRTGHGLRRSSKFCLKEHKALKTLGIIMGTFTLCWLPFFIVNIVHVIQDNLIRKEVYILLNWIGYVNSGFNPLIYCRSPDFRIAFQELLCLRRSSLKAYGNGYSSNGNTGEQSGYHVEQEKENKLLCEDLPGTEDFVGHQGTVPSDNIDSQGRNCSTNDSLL
The next assay deals with T4, Estrogen receptor (Homo sapiens, UniProt P03372).
T4 sequence (P03372 whole entry): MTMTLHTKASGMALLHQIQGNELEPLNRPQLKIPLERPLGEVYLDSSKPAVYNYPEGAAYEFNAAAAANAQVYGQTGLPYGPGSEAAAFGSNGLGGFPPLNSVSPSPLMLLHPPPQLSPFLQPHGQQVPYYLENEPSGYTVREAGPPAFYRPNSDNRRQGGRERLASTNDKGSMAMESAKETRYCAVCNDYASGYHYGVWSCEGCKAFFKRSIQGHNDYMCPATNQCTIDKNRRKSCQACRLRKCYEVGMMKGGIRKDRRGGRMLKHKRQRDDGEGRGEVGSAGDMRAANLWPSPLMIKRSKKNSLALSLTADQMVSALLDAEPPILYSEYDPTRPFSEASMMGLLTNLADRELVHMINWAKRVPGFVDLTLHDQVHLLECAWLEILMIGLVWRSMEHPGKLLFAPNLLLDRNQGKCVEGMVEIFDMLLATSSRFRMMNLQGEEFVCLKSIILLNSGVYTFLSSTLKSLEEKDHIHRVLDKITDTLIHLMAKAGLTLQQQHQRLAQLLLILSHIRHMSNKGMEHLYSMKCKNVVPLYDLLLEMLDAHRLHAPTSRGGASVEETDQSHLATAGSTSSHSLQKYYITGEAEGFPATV

For assay [5], the target named is T3, Alpha-1A adrenergic receptor.
Assay [6] has as its target Muscarinic acetylcholine receptor M3 (Homo sapiens, UniProt P20309).
Another assay addresses Melanocortin receptor 4 (Homo sapiens, UniProt P32245).
Note: assay procedure not described here.

Chain of Muscarinic acetylcholine receptor M3 (P20309 whole entry): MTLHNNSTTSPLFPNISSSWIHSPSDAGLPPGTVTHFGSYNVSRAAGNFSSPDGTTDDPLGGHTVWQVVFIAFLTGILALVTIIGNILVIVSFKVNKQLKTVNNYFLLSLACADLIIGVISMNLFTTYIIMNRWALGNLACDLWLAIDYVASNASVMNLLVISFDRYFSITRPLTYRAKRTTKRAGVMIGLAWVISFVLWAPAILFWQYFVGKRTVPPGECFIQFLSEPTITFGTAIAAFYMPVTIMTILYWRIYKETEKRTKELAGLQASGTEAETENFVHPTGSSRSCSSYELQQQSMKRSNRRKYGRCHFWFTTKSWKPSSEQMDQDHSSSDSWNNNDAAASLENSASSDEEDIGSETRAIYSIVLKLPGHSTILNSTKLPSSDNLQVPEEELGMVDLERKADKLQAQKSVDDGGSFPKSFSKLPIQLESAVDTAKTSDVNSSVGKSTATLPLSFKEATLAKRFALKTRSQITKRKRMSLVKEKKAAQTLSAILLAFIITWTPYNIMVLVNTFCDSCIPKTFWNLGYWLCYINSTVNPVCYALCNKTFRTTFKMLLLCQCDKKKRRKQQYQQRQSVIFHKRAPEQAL
Chain of Melanocortin receptor 4 (P32245 whole entry): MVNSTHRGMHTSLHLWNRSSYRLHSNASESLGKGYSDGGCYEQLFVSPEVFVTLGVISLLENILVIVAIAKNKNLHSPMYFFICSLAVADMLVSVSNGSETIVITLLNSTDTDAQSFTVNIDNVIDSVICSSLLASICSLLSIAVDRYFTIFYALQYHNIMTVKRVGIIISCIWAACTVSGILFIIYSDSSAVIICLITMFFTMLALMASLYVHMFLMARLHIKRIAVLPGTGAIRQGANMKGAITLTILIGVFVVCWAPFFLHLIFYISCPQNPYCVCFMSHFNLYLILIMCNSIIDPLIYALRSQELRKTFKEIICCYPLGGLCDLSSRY

As a reminder, the AC50 is the midpoint of the concentration-response curve, whichever way the signal moves. A higher AC50 goes with weaker potency. For the compound `CC(C)N(CCCCOCC(=O)O)c1cnc(-c2ccccc2)c(-c2ccccc2)n1`, the AC50 (on Endothelin-1 receptor; in assay [1]; in assay [2]; on Cannabinoid receptor 1; in assay [3]; in [4]) was over 30 µM in each case. Moreover, the AC50 (on Estrogen receptor; in assay [5]; in [6]) was over 30 µM each time.
Regarding `C[N+]12CCC(CC1)C(OC(=O)C(O)(c1ccccc1)c1ccccc1)C2` (stereo not given), the concentration at half-maximal activity (AC50) (on Endothelin-1 receptor; in assay [1]; in [2]; at Cannabinoid receptor 1; in assay [3]; in assay [4]) was over 30 µM each time. The compound also returned an AC50 in [6] of 0.0019 µM.
On to `COc1cc(C)c(/C=C/C(C)=C/C=C/C(C)=C/C(=O)O)c(C)c1C` [ACITRETIN], for which the concentration at half-maximal activity (AC50) in assay [1] was over 10 µM; in assay [2], over 10 µM; at Melanocortin receptor 4, over 10 µM; on Cannabinoid receptor 1, over 30 µM; in assay [3], over 30 µM; at Estrogen receptor, over 30 µM. Also, the AC50 in assay [5] is over 10 µM; in assay [6], over 30 µM.
Take `O=C(O)c1ccc(NC(=O)[C@H](Cc2ccc(O)cc2)NC(=O)c2ccccc2)cc1` [BENTIROMIDE]: the half-maximal activity concentration (AC50) is over 10 µM in [1]; over 10 µM in [2]; over 10 µM on Melanocortin receptor 4; over 10 µM on Estrogen receptor; over 10 µM in assay [5]; over 30 µM in [6].
For `NS(=O)(=O)c1cc2c(cc1Cl)N=C(CSCc1ccccc1)NS2(=O)=O` [BENZTHIAZIDE], the AC50 in [1] is 7.4 µM; in assay [2] it was over 10 µM; on Melanocortin receptor 4, over 10 µM; on Estrogen receptor, over 30 µM; in assay [5], over 30 µM; in [6], over 30 µM.
With `CO/N=C(\C(=O)N[C@@H]1C(=O)N2C(C(=O)O)=CCS[C@H]12)c1csc(N)n1` [CEFTIZOXIME], the AC50 (on Endothelin-1 receptor; in [2]; on Cannabinoid receptor 1; in assay [3]; in [4]; at Estrogen receptor) was over 30 µM in each case.
Regarding `CO/N=C(\C(=O)N[C@@H]1C(=O)N2C(C(=O)O)=C(CSc3nc(=O)c(=O)[nH]n3C)CS[C@H]12)c1csc(N)n1` [CEFTRIAXONE], the AC50 (at Endothelin-1 receptor; in assay [1]; in assay [2]; on Cannabinoid receptor 1; in [3]; in assay [4]) was over 30 µM in each case. The AC50 (at Estrogen receptor; in assay [6]) was over 30 µM in each case.
Consider `CC(C)[C@@H](C)/C=C/[C@@H](C)[C@H]1CC[C@H]2/C(=C/C=C3\C[C@@H](O)CC[C@@H]3C)CCC[C@]12C` [DIHYDROTACHYSTEROL], for which the AC50 was over 10 µM in [1]; over 10 µM in assay [2]; over 10 µM at Melanocortin receptor 4; over 30 µM at Estrogen receptor; over 10 µM in [5]; over 30 µM in assay [6].
Turning to `CN1CCN=C(c2ccccc2)c2cc(Cl)ccc21` [MEDAZEPAM], the AC50 was over 30 µM at Endothelin-1 receptor; over 30 µM in [1]; over 30 µM in [2]; over 30 µM at Cannabinoid receptor 1; 19 µM in assay [3]; over 30 µM in [4]. This compound also came in with an AC50 in assay [6] of over 30 µM.
With `O=C(NCCO[N+](=O)[O-])c1cccnc1` [NICORANDIL], the AC50 (at Endothelin-1 receptor; in assay [1]; in assay [2]; on Cannabinoid receptor 1; in [3]; in assay [4]) was over 30 µM throughout. This compound registered an AC50 in assay [6] of over 30 µM.
Consider `O=C(c1cc(Cc2n[nH]c(=O)c3ccccc23)ccc1F)N1CCN(C(=O)C2CC2)CC1` [OLAPARIB], for which the AC50 in assay [1] is over 10 µM; in assay [2], over 10 µM; on Melanocortin receptor 4 it was over 30 µM; at Estrogen receptor, over 30 µM; in assay [5], over 10 µM; in assay [6], over 30 µM.
As to `CO[C@H]1C[C@H](O[C@H]2CC[C@@]3(C)[C@H](CC[C@@H]4[C@@H]3CC[C@]3(C)[C@@H](C5=CC(=O)OC5)[C@@H](OC(C)=O)C[C@]43O)C2)O[C@@H](C)[C@@H]1O` [OLEANDRIN], the AC50 (in [1]; in [2]; at Cannabinoid receptor 1; in assay [3]; in assay [4]; in [6]) was over 30 µM throughout.
For `O=c1[nH]c2ccccc2n1CCCN1CCN(C(c2ccccc2)c2ccccc2)CC1` [OXATOMIDE], the AC50 on Endothelin-1 receptor is over 30 µM; in assay [1], over 30 µM; in [2], 1.2 µM; on Cannabinoid receptor 1, over 30 µM; in assay [3], 4.1 µM; in [4] it was over 30 µM. Also, in [6], the AC50 was 3.5 µM.
On to `COc1cc2[nH]c(C)c(CCN3CCN(c4ccccc4)CC3)c2cc1OC` [OXYPERTINE], for which the AC50 at Endothelin-1 receptor is over 30 µM; in [1] it was 0.25 µM; in assay [2], 0.41 µM; at Cannabinoid receptor 1, over 30 µM; in [4], over 30 µM; in assay [6] it was over 30 µM.
On to `c1ccc(C2(N3CCCCC3)CCCCC2)cc1` [PHENCYCLIDINE], for which the concentration at half-maximal activity (AC50) (at Endothelin-1 receptor; in assay [2]; on Cannabinoid receptor 1; in [3]; in assay [4]; in [6]) was over 30 µM throughout.
Consider `COc1cc(C(=O)OCc2cccc(COC(=O)c3cc(OC)c(OC)c(OC)c3)n2)cc(OC)c1OC` [PIROZADIL], for which the AC50 (at Endothelin-1 receptor; in [1]; in [2]; at Cannabinoid receptor 1; in assay [4]; in assay [6]) was over 30 µM each time.
As to `CC1=C(/C=C/C(C)=C/C=C/C(C)=C/CO)C(C)(C)CCC1` [RETINOL], the AC50 in assay [1] is over 30 µM; in assay [2], over 10 µM; on Melanocortin receptor 4, over 10 µM; on Estrogen receptor, over 30 µM; in [5], over 10 µM; in [6], over 30 µM.
For the compound `CCN1CCCC1CNC(=O)c1cc(S(=O)(=O)CC)ccc1OC` (stereo not given) [SULTOPRIDE], the AC50 was over 30 µM at Endothelin-1 receptor; 10 µM in assay [1]; over 30 µM in assay [2]; over 30 µM at Cannabinoid receptor 1; over 30 µM in assay [4]; over 30 µM in assay [6].
Take `C=CCN1CCc2nc(N)sc2CC1` [TALIPEXOLE]: the AC50 at Endothelin-1 receptor is over 30 µM; in [2], 24 µM; on Cannabinoid receptor 1, over 30 µM; in assay [4], over 30 µM; in assay [5], over 30 µM; in assay [6] it was over 30 µM.

These data come from ChEMBL document CHEMBL5291721, “A preclinical secondary pharmacology resource illuminates target-adverse drug reaction associations of marketed drugs” (Nat Commun, 2023).
